In ChEMBL document CHEMBL1128713, “N-alkylated nitrogen-in-the-ring sugars: conformational basis of inhibition of glycosidases and HIV-1 replication” (J Med Chem, 1995):
≈ marks a conversion by molar mass, not a printed value.

Legend:
[1] = target: T1, Alpha-mannosidase 2 (Rattus norvegicus, UniProt P28494); assay: Competitive Inhibitory activity against Golgi Alpha-mannosidase II
T1 sequence (P28494 whole entry): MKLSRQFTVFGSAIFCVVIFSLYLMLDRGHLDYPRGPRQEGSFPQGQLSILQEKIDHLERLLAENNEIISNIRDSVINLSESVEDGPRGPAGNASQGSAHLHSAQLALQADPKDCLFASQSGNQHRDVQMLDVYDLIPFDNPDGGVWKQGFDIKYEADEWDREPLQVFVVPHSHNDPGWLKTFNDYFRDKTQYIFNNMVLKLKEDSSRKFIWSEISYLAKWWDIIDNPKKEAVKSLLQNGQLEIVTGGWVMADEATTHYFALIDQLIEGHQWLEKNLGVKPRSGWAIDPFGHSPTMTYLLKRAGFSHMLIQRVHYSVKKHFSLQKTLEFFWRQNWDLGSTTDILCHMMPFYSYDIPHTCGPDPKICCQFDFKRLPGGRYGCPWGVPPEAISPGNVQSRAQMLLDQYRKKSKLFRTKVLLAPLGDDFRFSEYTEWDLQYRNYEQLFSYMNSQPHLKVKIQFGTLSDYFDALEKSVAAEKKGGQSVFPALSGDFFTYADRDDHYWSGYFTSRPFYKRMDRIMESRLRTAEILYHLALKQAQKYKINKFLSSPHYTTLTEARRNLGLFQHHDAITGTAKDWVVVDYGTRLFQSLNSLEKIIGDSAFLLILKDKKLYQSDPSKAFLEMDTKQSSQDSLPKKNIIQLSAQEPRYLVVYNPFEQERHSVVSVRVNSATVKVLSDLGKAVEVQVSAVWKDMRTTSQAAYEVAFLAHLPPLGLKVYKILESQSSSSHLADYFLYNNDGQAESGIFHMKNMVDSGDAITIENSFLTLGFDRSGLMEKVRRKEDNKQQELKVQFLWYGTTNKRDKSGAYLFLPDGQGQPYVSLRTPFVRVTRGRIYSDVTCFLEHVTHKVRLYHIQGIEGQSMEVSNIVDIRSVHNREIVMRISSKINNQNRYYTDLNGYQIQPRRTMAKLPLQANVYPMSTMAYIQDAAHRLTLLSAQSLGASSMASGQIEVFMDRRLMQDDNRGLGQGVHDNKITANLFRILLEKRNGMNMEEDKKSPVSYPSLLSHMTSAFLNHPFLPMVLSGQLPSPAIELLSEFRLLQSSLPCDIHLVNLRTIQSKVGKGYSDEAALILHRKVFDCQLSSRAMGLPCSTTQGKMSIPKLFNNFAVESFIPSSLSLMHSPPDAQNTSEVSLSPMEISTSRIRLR

[2] = target: T2, Mannosidase 2, alpha B1 (Rattus norvegicus, UniProt Q6P762); assay: Inhibition of lysosomal Alpha-mannosidase II in rat liver; type: tissue-based
T2 sequence (Q6P762 whole entry): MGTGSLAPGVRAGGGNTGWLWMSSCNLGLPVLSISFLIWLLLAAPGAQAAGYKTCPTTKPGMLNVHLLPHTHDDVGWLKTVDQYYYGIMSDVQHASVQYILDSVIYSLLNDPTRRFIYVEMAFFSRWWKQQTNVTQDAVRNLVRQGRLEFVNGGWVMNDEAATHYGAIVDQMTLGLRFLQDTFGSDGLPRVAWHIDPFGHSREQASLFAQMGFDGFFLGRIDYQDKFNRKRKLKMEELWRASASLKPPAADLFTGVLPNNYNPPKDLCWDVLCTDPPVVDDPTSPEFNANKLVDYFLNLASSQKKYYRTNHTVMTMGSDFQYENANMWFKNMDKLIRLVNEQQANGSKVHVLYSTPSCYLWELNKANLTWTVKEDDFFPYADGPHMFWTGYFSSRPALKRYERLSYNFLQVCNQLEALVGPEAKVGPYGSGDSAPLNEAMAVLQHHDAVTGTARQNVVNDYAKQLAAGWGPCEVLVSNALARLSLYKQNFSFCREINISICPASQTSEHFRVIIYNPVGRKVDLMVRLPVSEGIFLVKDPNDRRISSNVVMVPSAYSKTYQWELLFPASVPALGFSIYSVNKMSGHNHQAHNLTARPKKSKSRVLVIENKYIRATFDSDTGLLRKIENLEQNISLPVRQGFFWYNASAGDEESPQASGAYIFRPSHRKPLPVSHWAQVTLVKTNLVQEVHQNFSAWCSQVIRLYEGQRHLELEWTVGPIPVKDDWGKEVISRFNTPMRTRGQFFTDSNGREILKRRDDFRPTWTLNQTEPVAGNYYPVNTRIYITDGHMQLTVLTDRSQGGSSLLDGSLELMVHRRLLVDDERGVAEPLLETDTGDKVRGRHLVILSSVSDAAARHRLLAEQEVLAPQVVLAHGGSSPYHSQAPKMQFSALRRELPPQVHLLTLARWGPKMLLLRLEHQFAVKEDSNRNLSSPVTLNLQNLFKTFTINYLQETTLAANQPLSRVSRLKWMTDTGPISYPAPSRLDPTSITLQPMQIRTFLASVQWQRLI

[3] = target: T3, Alpha-mannosidase 2C1 (Rattus norvegicus, UniProt P21139); assay: Inhibition of soluble Alpha-mannosidase II in rat liver; type: tissue-based
T3 sequence (P21139 whole entry): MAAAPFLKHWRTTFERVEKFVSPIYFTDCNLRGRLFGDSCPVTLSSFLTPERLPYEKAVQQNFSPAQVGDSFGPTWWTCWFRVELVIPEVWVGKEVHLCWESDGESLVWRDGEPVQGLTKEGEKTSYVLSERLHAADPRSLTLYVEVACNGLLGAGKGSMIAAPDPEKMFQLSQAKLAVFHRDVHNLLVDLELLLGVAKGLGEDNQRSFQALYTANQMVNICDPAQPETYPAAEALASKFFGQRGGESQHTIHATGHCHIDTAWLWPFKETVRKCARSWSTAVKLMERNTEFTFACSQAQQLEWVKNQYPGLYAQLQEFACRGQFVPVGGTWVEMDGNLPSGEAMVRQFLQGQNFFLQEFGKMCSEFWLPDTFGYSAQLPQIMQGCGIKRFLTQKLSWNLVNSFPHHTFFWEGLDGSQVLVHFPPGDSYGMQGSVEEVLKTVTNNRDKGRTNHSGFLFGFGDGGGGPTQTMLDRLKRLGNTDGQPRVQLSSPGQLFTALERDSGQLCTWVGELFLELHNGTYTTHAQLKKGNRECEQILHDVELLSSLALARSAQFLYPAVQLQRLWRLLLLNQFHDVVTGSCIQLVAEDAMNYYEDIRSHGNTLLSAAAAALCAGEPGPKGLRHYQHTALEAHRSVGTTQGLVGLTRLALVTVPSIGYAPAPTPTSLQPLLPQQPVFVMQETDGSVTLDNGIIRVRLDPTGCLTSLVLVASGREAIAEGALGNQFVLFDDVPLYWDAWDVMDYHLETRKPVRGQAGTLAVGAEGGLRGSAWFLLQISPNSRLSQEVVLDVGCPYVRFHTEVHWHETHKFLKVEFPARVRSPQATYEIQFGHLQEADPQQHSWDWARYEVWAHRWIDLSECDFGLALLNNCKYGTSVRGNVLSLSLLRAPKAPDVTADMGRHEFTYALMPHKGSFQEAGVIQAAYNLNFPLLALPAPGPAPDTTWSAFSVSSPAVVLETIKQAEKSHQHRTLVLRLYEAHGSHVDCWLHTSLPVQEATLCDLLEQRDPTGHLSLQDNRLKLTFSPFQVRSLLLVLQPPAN

[4] = target: T1, Alpha-mannosidase 2; assay: Inhibition of golgi Alpha-mannosidase II in rat liver; type: tissue-based
[5] = Inhibition of endoplasmic reticulum Alpha-Glucosidase II in rat liver; type: tissue-based
[6] = Inhibition of lysosomal Alpha-Glucosidase II in rat liver
[7] = Competitive Inhibitory activity against Endoplasmic reticulum Alpha-Glucosidase II; parameters: species or system Rattus norvegicus
[8] = Inhibition of Cellobiase in rat intestinal brush border membranes by D-glucose oxidase-peroxidase method; type: cell membranes, Membrane
[9] = system: MOLT-4; assay: Concentration giving 50% inhibition of HIV-1 induced cytopathogenicity in MOLT-4 cells; type: functional, cell-based, Homo sapiens
[10] = system: MT4; assay: Concentration giving 50% inhibition of HIV-1 induced cytopathogenicity in MT-4 cells; type: functional, cell-based, Homo sapiens
[11] = target: T4, Trehalase (Rattus norvegicus, UniProt O70282); assay: Inhibition of Glycosidases (trehalase)in rat intestinal brush border membranes by D-glucose oxidase-peroxidase method; type: cell membranes, Membrane
T4 sequence (O70282 whole entry): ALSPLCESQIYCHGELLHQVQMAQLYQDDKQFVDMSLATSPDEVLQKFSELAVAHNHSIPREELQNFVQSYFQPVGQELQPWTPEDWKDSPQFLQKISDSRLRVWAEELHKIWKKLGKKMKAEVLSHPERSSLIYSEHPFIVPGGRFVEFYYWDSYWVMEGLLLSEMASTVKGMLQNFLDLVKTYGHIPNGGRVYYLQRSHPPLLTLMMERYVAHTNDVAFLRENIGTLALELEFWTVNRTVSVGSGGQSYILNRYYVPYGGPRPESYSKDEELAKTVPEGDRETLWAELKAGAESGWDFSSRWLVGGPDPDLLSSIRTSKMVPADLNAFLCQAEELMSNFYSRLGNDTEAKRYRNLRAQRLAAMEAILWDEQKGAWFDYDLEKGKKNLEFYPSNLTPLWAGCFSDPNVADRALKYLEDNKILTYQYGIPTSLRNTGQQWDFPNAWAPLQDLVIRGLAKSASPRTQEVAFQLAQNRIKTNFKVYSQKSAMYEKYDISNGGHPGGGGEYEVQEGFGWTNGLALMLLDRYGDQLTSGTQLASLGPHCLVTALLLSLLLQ

[12] = target: T5, Sucrase-isomaltase, intestinal (Rattus norvegicus, UniProt P23739); assay: Inhibition of Glycosidases (isomaltase)in rat intestinal brush border membranes by D-glucose oxidase-peroxidase method; type: cell membranes, Membrane
T5 sequence (P23739 1-1013 limits assumed): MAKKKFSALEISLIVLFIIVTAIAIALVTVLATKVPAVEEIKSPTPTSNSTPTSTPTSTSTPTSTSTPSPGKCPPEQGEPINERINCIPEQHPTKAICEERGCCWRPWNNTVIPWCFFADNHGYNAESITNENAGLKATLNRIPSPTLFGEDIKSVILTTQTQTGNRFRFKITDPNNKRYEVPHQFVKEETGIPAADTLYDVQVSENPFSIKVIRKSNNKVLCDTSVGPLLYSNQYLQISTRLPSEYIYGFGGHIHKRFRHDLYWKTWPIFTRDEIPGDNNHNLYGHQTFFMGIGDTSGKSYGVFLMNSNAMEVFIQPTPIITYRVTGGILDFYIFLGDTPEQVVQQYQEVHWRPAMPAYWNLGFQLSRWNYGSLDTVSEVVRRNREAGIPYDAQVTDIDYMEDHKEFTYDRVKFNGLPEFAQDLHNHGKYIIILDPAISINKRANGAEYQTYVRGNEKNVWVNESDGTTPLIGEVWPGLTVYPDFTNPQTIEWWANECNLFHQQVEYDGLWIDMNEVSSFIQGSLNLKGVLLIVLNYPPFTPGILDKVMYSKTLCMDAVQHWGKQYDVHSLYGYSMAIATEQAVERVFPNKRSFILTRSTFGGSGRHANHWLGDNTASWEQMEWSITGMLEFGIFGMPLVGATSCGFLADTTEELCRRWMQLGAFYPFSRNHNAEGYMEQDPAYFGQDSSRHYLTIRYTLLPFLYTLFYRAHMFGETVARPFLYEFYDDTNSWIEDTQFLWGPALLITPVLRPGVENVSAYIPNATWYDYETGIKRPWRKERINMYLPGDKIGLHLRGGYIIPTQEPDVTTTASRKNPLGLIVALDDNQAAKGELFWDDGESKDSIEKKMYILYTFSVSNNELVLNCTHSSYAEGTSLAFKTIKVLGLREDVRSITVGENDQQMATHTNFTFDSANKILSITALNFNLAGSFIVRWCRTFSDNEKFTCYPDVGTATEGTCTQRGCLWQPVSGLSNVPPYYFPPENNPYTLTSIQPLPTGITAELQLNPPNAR
T5 sequence (P23739 1014-1841 limits assumed): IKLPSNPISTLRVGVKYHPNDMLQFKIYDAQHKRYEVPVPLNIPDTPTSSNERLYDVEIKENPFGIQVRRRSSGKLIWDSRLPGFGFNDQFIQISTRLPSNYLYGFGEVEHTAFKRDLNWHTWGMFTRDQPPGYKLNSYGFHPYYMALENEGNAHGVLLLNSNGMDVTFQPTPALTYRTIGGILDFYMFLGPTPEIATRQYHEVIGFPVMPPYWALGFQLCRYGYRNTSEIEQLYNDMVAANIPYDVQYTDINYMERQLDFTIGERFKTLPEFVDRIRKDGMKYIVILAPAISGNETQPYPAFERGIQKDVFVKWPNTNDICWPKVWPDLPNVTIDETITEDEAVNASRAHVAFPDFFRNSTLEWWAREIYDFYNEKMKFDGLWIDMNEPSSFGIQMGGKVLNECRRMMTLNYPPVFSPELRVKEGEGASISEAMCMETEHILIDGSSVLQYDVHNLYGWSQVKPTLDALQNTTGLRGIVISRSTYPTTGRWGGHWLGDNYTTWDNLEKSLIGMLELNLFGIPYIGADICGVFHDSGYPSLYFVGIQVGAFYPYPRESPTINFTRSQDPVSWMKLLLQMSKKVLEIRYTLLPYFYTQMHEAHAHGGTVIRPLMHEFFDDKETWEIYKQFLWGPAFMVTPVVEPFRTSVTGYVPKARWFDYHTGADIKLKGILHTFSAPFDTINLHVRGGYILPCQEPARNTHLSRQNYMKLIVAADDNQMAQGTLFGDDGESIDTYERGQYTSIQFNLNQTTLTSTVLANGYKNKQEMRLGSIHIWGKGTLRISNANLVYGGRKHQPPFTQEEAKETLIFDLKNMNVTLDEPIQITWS

[13] = target: Lactase/phlorizin hydrolase (Rattus norvegicus, UniProt Q02401); assay: Inhibition of Glycosidases (lactase)in rat intestinal brush border membranes by D-glucose oxidase-peroxidase method; type: cell membranes, Membrane
Lactase/phlorizin hydrolase, sequence (Q02401 868-1928 limits assumed): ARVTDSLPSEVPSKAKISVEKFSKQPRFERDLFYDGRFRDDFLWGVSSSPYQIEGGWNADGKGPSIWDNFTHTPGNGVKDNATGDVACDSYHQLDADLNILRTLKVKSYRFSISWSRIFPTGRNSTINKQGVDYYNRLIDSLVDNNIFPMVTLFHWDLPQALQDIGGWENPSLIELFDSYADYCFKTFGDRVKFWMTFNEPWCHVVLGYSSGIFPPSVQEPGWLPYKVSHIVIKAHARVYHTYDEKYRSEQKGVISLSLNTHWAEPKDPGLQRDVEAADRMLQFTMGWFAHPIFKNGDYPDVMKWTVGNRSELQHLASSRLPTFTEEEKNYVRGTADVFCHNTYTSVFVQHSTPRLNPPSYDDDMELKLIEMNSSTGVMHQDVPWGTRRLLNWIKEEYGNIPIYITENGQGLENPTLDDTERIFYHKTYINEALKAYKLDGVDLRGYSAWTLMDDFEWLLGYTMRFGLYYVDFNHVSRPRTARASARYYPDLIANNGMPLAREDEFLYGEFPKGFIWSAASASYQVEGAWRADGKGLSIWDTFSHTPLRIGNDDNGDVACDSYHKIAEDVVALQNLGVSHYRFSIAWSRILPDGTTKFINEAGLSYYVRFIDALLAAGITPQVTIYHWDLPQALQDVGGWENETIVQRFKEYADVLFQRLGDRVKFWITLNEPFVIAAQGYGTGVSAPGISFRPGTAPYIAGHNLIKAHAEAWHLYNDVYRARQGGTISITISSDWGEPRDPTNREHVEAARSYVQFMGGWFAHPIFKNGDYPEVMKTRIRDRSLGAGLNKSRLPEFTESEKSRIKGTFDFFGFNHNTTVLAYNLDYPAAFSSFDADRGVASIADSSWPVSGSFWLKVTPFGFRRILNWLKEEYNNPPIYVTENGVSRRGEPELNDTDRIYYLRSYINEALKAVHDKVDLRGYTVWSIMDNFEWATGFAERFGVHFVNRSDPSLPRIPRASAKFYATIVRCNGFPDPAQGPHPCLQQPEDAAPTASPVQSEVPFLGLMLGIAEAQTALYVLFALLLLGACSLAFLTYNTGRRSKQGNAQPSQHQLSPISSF

[14] = target: T5, Sucrase-isomaltase, intestinal; assay: Inhibition of Sucrase in rat intestinal brush border membranes by D-glucose oxidase-peroxidase method; type: cell membranes, Membrane

| SMILES | Ki [1] [µM] | IC50 [2] [µM] | IC50 [3] [µM] | IC50 [4] [µM] | IC50 [5] [µM] | IC50 [6] [µM] | Ki [7] [µM] | IC50 [8] [µM] | EC50 [9] [mg/L] | IC50 [11] [µM] | IC50 [12] [µM] | IC50 [13] [µM] | IC50 [14] [µM] | EC50 [10] [mg/L] |
| --- | --- | --- | --- | --- | --- | --- | --- | --- | --- | --- | --- | --- | --- | --- |
| CCCCN1C[C@@H](O)[C@H](O)[C@H]1CO | 120 | < 50 | < 50 | 130 | 200 | 750 | 95 | < 50 | > 100 | < 50 | 340 | < 50 | 270 | > 100 |
| CN1[C@H](CO)[C@@H](O)[C@H](O)[C@H]1CO |  | < 50 | 190 | < 50 | < 50 | 470 |  | < 50 | > 100 |  | < 50 | < 50 | 620 | > 100 |
| OC[C@H]1N[C@H](CO)[C@@H](O)[C@@H]1O |  | < 50 | 260 |  | < 50 |  |  |  | > 100 |  | 91 |  | 44 | > 100 |
| CCCCN1[C@H](CO)[C@@H](O)[C@H](O)[C@H]1CO |  | < 50 | 850 | < 50 | < 50 | < 50 |  | < 50 | > 100 |  | < 50 | < 50 | < 50 | > 100 |
| OC[C@H]1NC[C@@H](O)[C@@H]1O | 35 |  |  | 46 | 20 | 130 | 9.7 | < 50 | > 100 | 25 |  | 260 |  | > 100 |
| OC[C@H]1NC[C@H](O)[C@@H](O)[C@@H]1O [DUVOGLUSTAT] | < 50 |  |  | < 50 |  | 0.4 |  |  | > 100 |  |  |  |  | > 100 |

The next lines start with results.

| Ki [1] [µM] | IC50 [2] [µM] | IC50 [3] [µM] | IC50 [4] [µM] | IC50 [5] [µM] | IC50 [6] [µM] | Ki [7] [µM] | IC50 [8] [µM] | EC50 [9] [mg/L] | IC50 [11] [µM] | IC50 [12] [µM] | IC50 [13] [µM] | IC50 [14] [µM] | SMILES | EC50 [10] [mg/L] |
| --- | --- | --- | --- | --- | --- | --- | --- | --- | --- | --- | --- | --- | --- | --- |
| < 50 | < 50 | < 50 | < 50 | 15 | 5.3 | 3.7 | < 50 | 37 (≈ 169 µM) | 13 |  |  |  | CCCCN1C[C@H](O)[C@@H](O)[C@H](O)[C@H]1CO | 49 (≈ 223 µM) |
| < 50 | 1000 | 500 | < 50 | 20 | 1.5 | 5.8 |  | 100 (≈ 564 µM) | 28 | 4.4 | 4.4 | 0.04 | CN1C[C@H](O)[C@@H](O)[C@H](O)[C@H]1CO | 69 (≈ 389 µM) |
| 51 | 360 | < 50 | 64 | 310 | 180 | 150 | < 50 | > 100 | < 50 | 100 | < 50 | 70 | CN1C[C@@H](O)[C@H](O)[C@H]1CO | > 100 |
